Results from paper PMC11101637, “Bioinformatics leading to conveniently accessible, helix enforcing, bicyclic ASX motif mimics (BAMMs)” (Nature Communications, 2024).
Peptide text beside a SMILES is read from it. * marks the point of attachment. X3 = C[C@@H]1NC(=O)[C@H](CCC(N)=O)NC(=O)[C@H](CC(=O)O)NC(=O)[C@@H](N)CSCc2cc3cc(c2)CSC[C@@H](C(=O)*)NC(=O)[C@H](CSC3)NC1=O; X1 = C[C@@H]1NC(=O)[C@H](CC(=O)O)NC(=O)[C@@H](N)CSCc2cc3cc(c2)CSC[C@@H](C(=O)*)NC(=O)[C@H](CSC3)NC(=O)[C@H](CO)NC1=O; X2 = C[C@@H]1NC(=O)[C@H](C)NC(=O)[C@H](CC(=O)O)NC(=O)[C@@H](N)CSCc2cc3cc(c2)CSC[C@@H](C(=O)*)NC(=O)[C@H](CSC3)NC1=O

Experiments:
[1] = CD spectroscopy: percent helicity and ellipticity ratio 222/208 nm; assay type: physicochemical; conditions: for % helicity: 5-30 μM peptide, three scans averaged, [θ]222/[θ]max
Procedure: Circular dichroism (CD) experiments
Concentrations of the stock solution were determined by […] absorption of Trp or 275 nm absorption of Tyr (and TMB, if present in peptides). Each sample was dissolved in 1x PBS (pH 7.4), 10% TFE/PBS or 20% TFE/PBS with the final concentration between 5 to 30 μM. CD spectra were acquired using circular dichroism spectrometer (Chirascan) equipped with a temperature controller using 1 mm cell at a scan speed of 0.5 nm/sec at indicated temperature. Each sample was scanned three times and the averaged spectrum was smoothed.
Calculation of percent helicity
For simplicity, ‘helicity’ or ‘helical’ in the following text all refers to α-type. For each peptide, mean residue ellipticities ([θ]/(c*n), c = concentration of the peptide, n = number of amino acids in the peptide) were used to calculate % helicity, which is an empirical indicator of peptide helicity. […] (n = number of amino acids in the peptide, T = 25.0 °C).

circular dichroism = conditions: PBS; pH 7.4; 25 °C; 5-30 uM
[2] = In vitro peptide stability in human serum; assay type: in vitro ADME; conditions: 25% male human serum diluted in RPMI medium, 150 μM peptide, 37 °C, serum pre-equilibrated 15 min, methanol precipitation, RP-HPLC 210 nm peak area relative to 0 h, LC-MS for products
Procedure: In vitro peptide stability in human serum[50]
Male human serum (H-4522) was obtained from Sigma Aldrich (Missouri, USA). […] The initial time is recorded as peptides were added. The mixture was incubated at 37 °C and an aliquot of 40 μL was removed at different time intervals. […] The supernatant was analyzed in analytical RP-HPLC to calculate the amount of tested peptides, and in LCMS to analyze degradation products. The eluted peptides were detected by absorbance at 210 nm and quantified by their peak areas relative to the initial peak areas (0 h).

cyclin E [3] = target: T1, cyclin E (Homo sapiens, UniProt P24864); assay: Direct FP assay to measure Kd of fluorescent peptides; assay type: binding; conditions: FITC-labelled peptide 20 nM final, cyclin E up to 2.4 μM final, PBS, 3 h, n=1 independent experiment in duplicate wells; not saturated, estimate value; read-out: Kd, fluorescence polarization
T1 construct: purchased Sino Biological
T1 sequence (P24864 whole entry): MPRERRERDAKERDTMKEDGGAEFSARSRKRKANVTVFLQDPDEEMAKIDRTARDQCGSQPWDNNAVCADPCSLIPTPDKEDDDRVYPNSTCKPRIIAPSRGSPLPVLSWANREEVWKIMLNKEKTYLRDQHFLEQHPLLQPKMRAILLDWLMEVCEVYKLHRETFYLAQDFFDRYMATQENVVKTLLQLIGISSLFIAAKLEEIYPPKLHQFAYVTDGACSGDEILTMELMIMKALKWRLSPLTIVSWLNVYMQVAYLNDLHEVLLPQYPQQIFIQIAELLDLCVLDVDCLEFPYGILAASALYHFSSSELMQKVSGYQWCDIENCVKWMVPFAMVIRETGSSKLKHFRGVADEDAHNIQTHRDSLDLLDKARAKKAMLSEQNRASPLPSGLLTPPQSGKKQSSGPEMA
Procedure: Direct FP assay to measure Kd of fluorescent peptides
Polarized fluorescence intensities were measured on Synergy H4 plate reader with excitation and emission wavelengths of 485 and 535 nm with 20 nm band widths, respectively. The optics position is Top 510 nm with Gain set as 100. Read Speed is normal and read height is 7 mm. Cyclin proteins were bought from Sino Biological and after reconstitution it should be used immediately. […] To each well, 10 μL 40 nM of fluorescent peptides in PBS was added. Various concentrations of cyclin E (from Sino Biological, Inc.) were prepared (0.16–4.8 μM) and 10 μL were added to each well. The plate was shaken in the dark for 3 h. Wells containing only the peptide and PBS buffer were used as a control. Each mixture was prepared in duplicates.

cyclin E [4] = target: T1, cyclin E; assay: Trp fluorescence quenching assay; assay type: binding; conditions: 0.8 μM cyclin E in PBS pH 7.4, 25 °C, ex 295 nm, em 338 nm; n = 2 independent experiments, ± S.D.
Procedure: Trp fluorescence quenching assay
Fluorescence quenching of the single tryptophan in cyclin E was measured by using a Cary Eclipse (Varian) equipped with a front-face fluorescence accessory at 25 °C, by using 10-nm excitation and 10 nm emission bandwidths. The excitation wavelength was 295 nm and the emission spectra were measured between 315 and 395 nm. Titrations were performed in a 0.7-ml quartz fluorescence cuvette containing 0.5 mL 0.8 μM protein in PBS buffer, pH 7.4, and by the successive addition of 0.5–1 μL of compound stock solutions. After each addition, the cuvette was shaken to enable fast mixture, and there were 10 mins interval between two additions to ensure equilibrium of the mixture. The measurements were repeated at least three times at each concentration. Fluorescence intensities at 338 nm at increasing concentrations of the quencher were collected. Dissociation equilibrium constant (Kd) values were determined by fitting data to the equation below[42],[43].

[5] = CD in PBS buffer (pH 7.4, 10 mM), 25.0 °C, 1 mm cell

Row | Compound | ellipticity ratio 222/208 nm ([1]; CD in 10% TFE/PBS, 25 °C) | % helicity ([1]; CD in 10% TFE/PBS, 25 °C) | % helicity [1, 5] | ellipticity ratio 222/208 nm ([1]; CD in PBS, 25 °C) | helicity (circular dichroism) | half-life at 150 μM [2] | Kd (cyclin E [3]) | half-life [2] | Kd (cyclin E [4])
1 | CC[C@H](C)[C@H](NC(=O)[C@H](CCC(=O)O)NC(=O)[C@H](C)NC(=O)[C@H](CC(C)C)NC(=O)[C@H](CCC(N)=O)NC(=O)[C@@H]1CSCc2cc3cc(c2)CSC[C@H](N)C(=O)N[C@@H](CC(=O)O)C(=O)N[C@@H](CCC(N)=O)C(=O)N[C@@H](C(C)C)C(=O)N[C@@H](CSC3)C(=O)N1)C(=O)N[C@@H](Cc1ccc(O)cc1)C(N)=O [1B] | 0.86 | 43% | 17% | 0.48 | 17% | 306 min |  |  | 
2 | CC(C)C[C@H](NC(=O)[C@H](C)NC(=O)[C@H](CCCNC(=N)N)NC(=O)[C@H](CC(C)C)NC(=O)[C@H](CC(C)C)NC(=O)[C@@H]1CSCc2cc3cc(c2)CSC[C@H](N)C(=O)N[C@@H](CC(=O)O)C(=O)N[C@@H](CCC(N)=O)C(=O)N[C@@H](C)C(=O)N[C@@H](CSC3)C(=O)N1)C(=O)N[C@@H](CC(=O)O)C(=O)N[C@@H](CCC(N)=O)C(=O)N[C@@H](Cc1ccc(O)cc1)C(N)=O [2B] (X3-LLRALDQY-NH2; N-terminus and C-terminus assumed) | 1 | 42% | 25% | 0.91 | 25% | 174 min |  |  | 
3 | CC[C@H](C)[C@H](NC(=O)[C@@H]1CSCc2cc3cc(c2)CSC[C@H](N)C(=O)N[C@@H](CC(=O)O)C(=O)N[C@@H](C)C(=O)N[C@@H](CO)C(=O)N[C@@H](CSC3)C(=O)N1)C(=O)N[C@@H](CCCNC(=N)N)C(=O)N[C@@H](CCC(=O)O)C(=O)N[C@H](C(=O)N[C@@H](CO)C(=O)N[C@@H](CC(C)C)C(=O)N[C@@H](CC(C)C)C(=O)N[C@@H](CCCCN)C(=O)N[C@@H](CCC(=O)O)C(=O)N[C@@H](Cc1ccc(O)cc1)C(N)=O)[C@@H](C)CC [3B] (X1-IREISLLKEY-NH2; N-terminus and C-terminus assumed) | 0.84 | 34% | 17% | 0.5 | 17% | 210 min |  |  | 
4 | CC[C@H](C)[C@H](NC(=O)[C@@H]1CSCc2cc3cc(c2)CSC[C@H](NC(=O)[C@H](CO)NC(=O)[C@H](C)NC(=O)[C@H](CC(=O)O)NC(=O)[C@@H](NC(=O)CCNC(=O)CCNC(=O)CCNC(=S)Nc2ccc4c(c2)C(=O)OC42c4ccc(O)cc4Oc4cc(O)ccc42)CSC3)C(=O)N1)C(=O)N[C@@H](CCCNC(=N)N)C(=O)N[C@@H](CCC(=O)O)C(=O)N[C@H](C(=O)N[C@@H](CO)C(=O)N[C@@H](CC(C)C)C(=O)N[C@@H](CC(C)C)C(=O)N[C@@H](CCCCN)C(=O)N[C@@H](CCC(=O)O)C(=O)N[C@@H](Cc1ccc(O)cc1)C(N)=O)[C@@H](C)CC [3Bf] |  |  |  |  |  |  | 4.6 ± 2.4 µM |  | 
5 | CC[C@H](C)[C@H](NC(=O)[C@H](CC(N)=O)NC(=O)[C@H](CCCCN)NC(=O)[C@@H]1CSCc2cc3cc(c2)CSC[C@H](N)C(=O)N[C@@H](CC(=O)O)C(=O)N[C@@H](C)C(=O)N[C@@H](C)C(=O)N[C@@H](CSC3)C(=O)N1)C(=O)N[C@@H](C)C(=O)N[C@@H](CO)C(=O)N[C@@H](CC(C)C)C(=O)N[C@@H](CC(C)C)C(=O)N[C@@H](CCCNC(=N)N)C(=O)N[C@H](C(=O)N[C@@H](CCC(N)=O)C(=O)N[C@@H](C)C(=O)N[C@@H](Cc1c[nH]cn1)C(=O)N[C@H](C(=O)N[C@@H](CCCNC(=N)N)C(=O)N[C@@H](CCCCN)C(=O)N[C@@H](CCCCN)C(=O)N[C@@H](CCSC)C(=O)N[C@H](C(=O)N[C@@H](Cc1ccc(O)cc1)C(N)=O)C(C)C)[C@@H](C)CC)C(C)C [4B] (X2-KNIASLLRVQAHIRKKMVY-NH2; N-terminus and C-terminus assumed) | 1 | 45% | 22% | 0.64 |  |  |  | 66 min | 
6 | CC[C@H](C)[C@H](NC(=O)[C@H](CC(N)=O)NC(=O)[C@H](CCCCN)NC(=O)[C@H](CSC)NC(=O)[C@H](CSC)NC(=O)[C@H](C)NC(=O)[C@H](C)NC(=O)[C@H](CC(=O)O)NC(=O)[C@@H](N)CSC)C(=O)N[C@@H](C)C(=O)N[C@@H](CO)C(=O)N[C@@H](CC(C)C)C(=O)N[C@@H](CC(C)C)C(=O)N[C@@H](CCCNC(=N)N)C(=O)N[C@H](C(=O)N[C@@H](CCC(N)=O)C(=O)N[C@@H](C)C(=O)N[C@@H](Cc1c[nH]cn1)C(=O)N[C@H](C(=O)N[C@@H](CCCNC(=N)N)C(=O)N[C@@H](CCCCN)C(=O)N[C@@H](CCCCN)C(=O)N[C@@H](CCSC)C(=O)N[C@H](C(=O)N[C@@H](Cc1ccc(O)cc1)C(N)=O)C(C)C)[C@@H](C)CC)C(C)C [4m] (H-C(Me)DAAC(Me)C(Me)KNIASLLRVQAHIRKKMVY-NH2; N-terminus and C-terminus assumed) | 0.73 | 35% | 11% | 0.29 |  |  |  | < 60 min | 
7 | Ac-ASTAIREISLLKEY-NH2 [3l] | 0.34 | 20% | 11% | 0.18 | 11% |  |  |  | 8.6 ± 2.8 µM
8 | Ac-KNIASLLRVQAHIRKKMVY-NH2 [4l] | 0.69 | 35% | 14% | 0.27 | 14% |  |  | < 60 min | 
